Laboratory results published in the supplement of paper PMC10307832.

Experiments:
Assay in all cases: relative viability (nuclei count vs DMSO), 5 days (fraction); higher = more cells survive
[1] = system: RERF-LC-KJ
Method in brief: (§1)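 Relative viability is defined as nuclei in treated wells over nuclei in vehicle wells. Duplicate plates were run and medians reported. Lung cancer cell lines in 1536-well plates were dosed by pin tool one day after seeding, with one drug or with a fixed anchor-drug dose plus five library-drug doses (not always all listed) in √10 steps, and nuclei were counted after 5 days.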

[2] = system: SW 900
Method in brief: as §1

[3] = system: NCI-H1651
Method in brief: as §1

[4] = system: NCI-H460
Method in brief: as §1

[5] = system: PC-14
Method in brief: as §1

[6] = system: LCLC-103H
Method in brief: as §1

[7] = system: COR-L23
Method in brief: as §1

[8] = system: LCLC-97TM1
Method in brief: as §1

[9] = system: NCI-H1650
Method in brief: as §1

[10] = system: NCI-H1793
Method in brief: as §1

[11] = system: SW 1573
Method in brief: as §1

[12] = system: LK-2
Method in brief: as §1

[13] = system: NCI-H2347
Method in brief: as §1

[14] = system: NCI-H650
Method in brief: as §1

[15] = system: NCI-H727
Method in brief: as §1

[16] = system: PC-3 [JPC-3]
Method in brief: as §1

[17] = system: 201T
Method in brief: as §1

[18] = system: A-427
Method in brief: as §1

[19] = system: LU99A
Method in brief: as §1

[20] = system: NCI-H23
Method in brief: as §1

[21] = system: H3255
Method in brief: as §1

[22] = system: NCI-H838
Method in brief: as §1

[23] = system: NCI-H1944
Method in brief: as §1

Q: Which results are given for `Clc1ccc(Nc2nnc(Cc3ccncc3)c3ccccc23)cc1` [Vatalanib] + Nc1ncn([C@H]2C[C@H](O)[C@@H](CO)O2)c(=O)n1 [Decitabine] (partner 2 µM)?
A: relative viability ([1]; first compound 0.04 µM): 0.737; relative viability ([1]; first compound 0.1265 µM): 0.739; relative viability ([1]; first compound 0.4 µM): 0.866; relative viability ([1]; first compound 1.265 µM): 0.599; relative viability ([1]; first compound 4 µM): 0.665; relative viability ([2]; first compound 0.04 µM): 0.421; relative viability ([2]; first compound 0.1265 µM): 0.457; relative viability ([2]; first compound 0.4 µM): 0.447; relative viability ([2]; first compound 1.265 µM): 0.423; relative viability ([2]; first compound 4 µM): 0.425; relative viability ([3]; first compound 0.04 µM): 0.518; relative viability ([3]; first compound 0.1265 µM): 0.59; relative viability ([3]; first compound 0.4 µM): 0.495; relative viability ([3]; first compound 1.265 µM): 0.565; relative viability ([3]; first compound 4 µM): 0.668; relative viability ([4]; first compound 0.04 µM): 0.502; relative viability ([4]; first compound 0.1265 µM): 0.481; relative viability ([4]; first compound 0.4 µM): 0.482; relative viability ([4]; first compound 1.265 µM): 0.47; relative viability ([4]; first compound 4 µM): 0.495; relative viability ([5]; first compound 0.04 µM): 0.231; relative viability ([5]; first compound 0.1265 µM): 0.213; relative viability ([5]; first compound 0.4 µM): 0.219; relative viability ([5]; first compound 1.265 µM): 0.174; relative viability ([5]; first compound 4 µM): 0.253; relative viability ([6]; first compound 0.04 µM): 0.715; relative viability ([6]; first compound 0.1265 µM): 0.722; relative viability ([6]; first compound 0.4 µM): 0.759; relative viability ([6]; first compound 1.265 µM): 0.71; relative viability ([6]; first compound 4 µM): 0.725; relative viability ([7]; first compound 0.04 µM): 0.503; relative viability ([7]; first compound 0.1265 µM): 0.414; relative viability ([7]; first compound 0.4 µM): 0.565; relative viability ([7]; first compound 1.265 µM): 0.441; relative viability ([7]; first compound 4 µM): 0.404; relative viability ([8]; first compound 0.04 µM): 0.237; relative viability ([8]; first compound 0.1265 µM): 0.19; relative viability ([8]; first compound 0.4 µM): 0.25; relative viability ([8]; first compound 1.265 µM): 0.224; relative viability ([8]; first compound 4 µM): 0.232; relative viability ([9]; first compound 0.04 µM): 0.361; relative viability ([9]; first compound 0.1265 µM): 0.414; relative viability ([9]; first compound 0.4 µM): 0.388; relative viability ([9]; first compound 1.265 µM): 0.373; relative viability ([9]; first compound 4 µM): 0.424; relative viability ([10]; first compound 0.04 µM): 0.374; relative viability ([10]; first compound 0.1265 µM): 0.463; relative viability ([10]; first compound 0.4 µM): 0.599; relative viability ([10]; first compound 1.265 µM): 0.499; relative viability ([10]; first compound 4 µM): 0.463; relative viability ([11]; first compound 0.04 µM): 0.541; relative viability ([11]; first compound 0.1265 µM): 0.482; relative viability ([11]; first compound 0.4 µM): 0.39; relative viability ([11]; first compound 1.265 µM): 0.455; relative viability ([11]; first compound 4 µM): 0.493; relative viability ([12]; first compound 0.04 µM): 0.242; relative viability ([12]; first compound 0.1265 µM): 0.25; relative viability ([12]; first compound 0.4 µM): 0.297; relative viability ([12]; first compound 1.265 µM): 0.266; relative viability ([12]; first compound 4 µM): 0.319; relative viability ([13]; first compound 0.04 µM): 0.616; relative viability ([13]; first compound 0.1265 µM): 0.62; relative viability ([13]; first compound 0.4 µM): 0.624; relative viability ([13]; first compound 1.265 µM): 0.602; relative viability ([13]; first compound 4 µM): 0.64; relative viability ([14]; first compound 0.04 µM): 0.292; relative viability ([14]; first compound 0.1265 µM): 0.337; relative viability ([14]; first compound 0.4 µM): 0.306; relative viability ([14]; first compound 1.265 µM): 0.327; relative viability ([14]; first compound 4 µM): 0.334; relative viability ([15]; first compound 0.1265 µM): 0.801; relative viability ([15]; first compound 0.4 µM): 0.539; relative viability ([15]; first compound 1.265 µM): 0.821; relative viability ([15]; first compound 4 µM): 0.973; relative viability ([16]; first compound 0.04 µM): 0.843; relative viability ([16]; first compound 0.1265 µM): 0.81; relative viability ([16]; first compound 0.4 µM): 0.663; relative viability ([16]; first compound 1.265 µM): 0.857; relative viability ([16]; first compound 4 µM): 0.777; relative viability ([17]; first compound 0.04 µM): 0.832; relative viability ([17]; first compound 0.1265 µM): 0.85; relative viability ([17]; first compound 0.4 µM): 0.881; relative viability ([17]; first compound 1.265 µM): 0.867; relative viability ([17]; first compound 4 µM): 0.861; relative viability ([18]; first compound 0.04 µM): 0.6; relative viability ([18]; first compound 0.1265 µM): 0.544; relative viability ([18]; first compound 0.4 µM): 0.601; relative viability ([18]; first compound 4 µM): 0.535; relative viability ([19]; first compound 0.04 µM): 0.835; relative viability ([19]; first compound 0.1265 µM): 0.842; relative viability ([19]; first compound 0.4 µM): 0.962; relative viability ([19]; first compound 1.265 µM): 0.868; relative viability ([19]; first compound 4 µM): 0.84; relative viability ([20]; first compound 0.04 µM): 0.355; relative viability ([20]; first compound 0.1265 µM): 0.324; relative viability ([20]; first compound 0.4 µM): 0.314; relative viability ([20]; first compound 1.265 µM): 0.291; relative viability ([20]; first compound 4 µM): 0.348; relative viability ([21]; first compound 0.04 µM): 0.526; relative viability ([21]; first compound 0.1265 µM): 0.616; relative viability ([21]; first compound 0.4 µM): 0.515; relative viability ([21]; first compound 1.265 µM): 0.613; relative viability ([21]; first compound 4 µM): 0.551; relative viability ([22]; first compound 0.04 µM): 0.435; relative viability ([22]; first compound 0.1265 µM): 0.467; relative viability ([22]; first compound 0.4 µM): 0.441; relative viability ([22]; first compound 1.265 µM): 0.483; relative viability ([22]; first compound 4 µM): 0.448; relative viability ([23]; first compound 0.04 µM): 0.427; relative viability ([23]; first compound 0.1265 µM): 0.393; relative viability ([23]; first compound 0.4 µM): 0.476; relative viability ([23]; first compound 1.265 µM): 0.398; relative viability ([23]; first compound 4 µM): 0.419
